Results: patent publication EP0556482B1, “Propyl endopeptidase inhibitor” (SNOW BRAND MILK PRODUCTS CO., LTD., priority 1991, dated 1993)
Like-named read-outs stand apart in the source and are kept apart here. *1 amine or outer side, *2 acyl side, *3 side chain or, on linkers, in order; H or OH if unused. Where a SMILES comes first, the peptide text is derived from it. Bridges are numbered along the chain shown (N, C = ends). [ ]: non-standard residue; d: D form. The star is where a group is joined. Undeca(2Z,4E)dienoyl(10-Me) = CC(C)CCCC/C=C/C=C\C(=O)*; Phg(3,5-Cl2-4-OH) = N[C@H](C(=O)O)c1cc(Cl)c(O)c(Cl)c1; X1 = N=C1NC[C@@H](C[C@@H](N[*:1])C(=O)[*:2])N1; X2 = N=C1NC[C@@H](C[C@H](N[*:1])C(=O)[*:2])N1; d(aThr) = C[C@@H](O)[C@@H](N)C(=O)O; dHpg = N[C@@H](C(=O)O)c1ccc(O)cc1; Hpg = N[C@H](C(=O)O)c1ccc(O)cc1; Cit = NC(=O)NCCC[C@H](N)C(=O)O; aThr = C[C@H](O)[C@H](N)C(=O)O; dOrn = NCCC[C@@H](N)C(=O)O

How the values were obtained:
[1] = target: T1, prolyl endopeptidase derived from human placenta (Homo sapiens, UniProt P48147); experiment: Prolyl endopeptidase inhibitive activity, human placenta enzyme (fluorometric, Z-Gly-Pro-7-AMC substrate); format: biochemical; parameters: obtaining a supernatant, from which microsome fractions had been removed, as a prolyl endopeptidase fraction; from tissue; host or cells: human placenta, cytosol fraction (104,000 x g supernatant), crude enzyme
T1 sequence (P48147 1-710): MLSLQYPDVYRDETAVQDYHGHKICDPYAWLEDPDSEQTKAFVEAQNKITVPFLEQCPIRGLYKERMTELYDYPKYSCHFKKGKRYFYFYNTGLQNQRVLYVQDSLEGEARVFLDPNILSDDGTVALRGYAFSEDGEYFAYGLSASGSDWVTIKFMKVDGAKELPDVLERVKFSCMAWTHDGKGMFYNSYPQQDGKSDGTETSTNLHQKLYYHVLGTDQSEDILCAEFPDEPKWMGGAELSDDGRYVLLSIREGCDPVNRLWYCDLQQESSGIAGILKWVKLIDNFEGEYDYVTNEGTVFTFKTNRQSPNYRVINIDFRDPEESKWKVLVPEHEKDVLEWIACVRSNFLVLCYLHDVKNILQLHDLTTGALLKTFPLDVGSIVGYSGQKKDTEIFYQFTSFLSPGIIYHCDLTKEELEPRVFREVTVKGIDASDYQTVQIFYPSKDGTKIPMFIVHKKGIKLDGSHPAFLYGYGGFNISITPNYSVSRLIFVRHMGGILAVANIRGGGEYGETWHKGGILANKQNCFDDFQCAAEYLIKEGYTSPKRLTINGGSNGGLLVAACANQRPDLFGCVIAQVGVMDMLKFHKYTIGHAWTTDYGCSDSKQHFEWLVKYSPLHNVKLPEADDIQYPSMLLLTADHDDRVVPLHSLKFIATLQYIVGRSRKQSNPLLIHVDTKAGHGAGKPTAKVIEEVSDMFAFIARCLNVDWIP
Description: (§1) The inhibitive activity of enduracidin A was measured by using a methanol solution of this compound.
(§2) The prolyl endopeptidase inhibitive activity in the present invention was measured by the following method. Prolyl endopeptidase from human placenta was prepared according to the method for preparing aromatase [Chem. Pharm. […] The placenta tissues were pulverized and homogenized with a 67 mM potassium phosphate buffer (pH 7.5) containing 5 mM DTT and 0.25 M sucrose. The homogenized solution was centrifuged at 10,000 x g for 30 minutes to obtain a supernatant.
To carry out the enzyme reaction, 0.01 ml of each sample dissolved in methanol in various concentrations and 0.01 ml of the placenta cytosol fraction were added to 0.96 ml of a 0.1 M Tris-HCl buffer solution (pH 7.0), and the resulting solution was mixed and incubated at 37°C for 5 minutes. The reaction was initiated by the addition of 0.02 ml of a 2 mM solution of synthesized substrate, Z-Gly-Pro-7-AMC (a product of Cambridge Research Biochemicals), dissolved in 40% dioxane to said solution, and continued for 10 minutes at 37°C. […]
(§3) The inhibition rate was determined by the formula, [(A-B)/A] x 100 (%), wherein A represents a fluorescent concentration of liberated 7-AMC in the reaction of the control and B is a fluorescent concentration of liberated 7-AMC in the reaction to which a sample was added.

mouse = conditions: in vivo, ip; cited from earlier work
rat = conditions: in vivo, iv; cited from earlier work
[2] = target: T2, prolyl endopeptidase derived from Flavobacterium (Elizabethkingia meningoseptica, UniProt P27028); format: biochemical; conditions: Table 1; enzyme from Flavobacterium; read-out: IC₅₀ (µM) Flavobacterium
T2 construct: purchased Seikagaku Kogyo Co
T2 sequence (P27028 21-705): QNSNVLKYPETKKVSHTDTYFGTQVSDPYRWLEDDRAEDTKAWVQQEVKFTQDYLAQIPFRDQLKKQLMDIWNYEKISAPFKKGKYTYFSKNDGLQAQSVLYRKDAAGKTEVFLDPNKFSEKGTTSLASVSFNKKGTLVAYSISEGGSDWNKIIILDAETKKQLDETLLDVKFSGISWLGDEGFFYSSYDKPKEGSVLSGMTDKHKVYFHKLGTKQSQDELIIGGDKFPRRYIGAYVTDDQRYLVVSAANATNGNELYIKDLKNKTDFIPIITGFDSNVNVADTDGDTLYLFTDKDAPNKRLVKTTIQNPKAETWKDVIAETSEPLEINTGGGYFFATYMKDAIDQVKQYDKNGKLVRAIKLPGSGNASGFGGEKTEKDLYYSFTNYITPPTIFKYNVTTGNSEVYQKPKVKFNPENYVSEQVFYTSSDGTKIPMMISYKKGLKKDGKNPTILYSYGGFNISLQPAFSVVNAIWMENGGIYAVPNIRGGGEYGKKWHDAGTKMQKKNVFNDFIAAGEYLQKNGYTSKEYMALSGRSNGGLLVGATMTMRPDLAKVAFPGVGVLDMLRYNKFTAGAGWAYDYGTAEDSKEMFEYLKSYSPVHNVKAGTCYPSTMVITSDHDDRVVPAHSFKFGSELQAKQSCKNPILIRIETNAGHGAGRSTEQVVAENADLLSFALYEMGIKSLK
Description: as §1, §3

[3] = target: T1, prolyl endopeptidase derived from human placenta; experiment: Prolyl endopeptidase inhibitive activity, human placenta enzyme (fluorometric, Z-Gly-Pro-7-AMC substrate); format: biochemical; parameters: obtaining a supernatant, from which microsome fractions had been removed, as a prolyl endopeptidase fraction; from tissue; host or cells: human placenta, cytosol fraction (104,000 x g supernatant)
Description: as §1, §2
To carry out the enzyme reaction, 0.01 ml of each sample dissolved in methanol in various concentrations and 0.01 ml of the placenta cytosol fraction were added to 0.96 ml of a 0.1 M Tris-HCl buffer solution (pH 7.0), and the resulting solution was mixed and incubated at 37°C for 5 minutes. The reaction was initiated by the addition of 0.02 ml of a 2 mM solution of synthesized substrate, Z-Gly-Pro-7-AMC (a product of Cambridge Research Biochemicals), dissolved in 40% dioxane to said solution, and continued for 10 minutes at 37°C. After the reaction, 0.5 ml of a reaction termination agent (10 g of Triton X-100/95 ml, 1 M acetate buffer, pH 4.0) and 2 ml of water were added to measure 7-AMC (7-amino-4-methylcoumarin) liberated by the reaction at an excitation wavelength of 380 nm and an emission wavelength of 460 nm.
as §3

[4] = comparison of both enzymes, in words

Q: With `CC(C)CCCC/C=C/C=C\C(=O)N[C@@H](CC(=O)O)C(=O)N[C@@H]1C(=O)N[C@H](c2ccc(O)cc2)C(=O)N[C@H](CCCN)C(=O)N[C@H]([C@@H](C)O)C(=O)N[C@@H](c2ccc(O)cc2)C(=O)N[C@H](c2ccc(O)cc2)C(=O)N[C@@H]([C@H](C)O)C(=O)N[C@@H](CCCNC(N)=O)C(=O)N[C@H](C[C@@H]2CNC(=N)N2)C(=O)N[C@@H](c2ccc(O)cc2)C(=O)N[C@H](CO)C(=O)N[C@@H](c2cc(Cl)c(O)c(Cl)c2)C(=O)NCC(=O)N[C@@H](C[C@@H]2CNC(=N)N2)C(=O)N[C@H](C)C(=O)N[C@@H](c2ccc(O)cc2)C(=O)O[C@@H]1C` [Enduracidin A] ({Undeca(2Z,4E)dienoyl(10-Me)}-DT[dHpg][dOrn][d(aThr)][Hpg][dHpg][aThr][Cit][X1][Hpg][dS][Phg(3,5-Cl2-4-OH)]G[X2][dA][Hpg]; ester 2-C) as the compound, how does the mode of inhibition ([1]; Dixon Plot, enzyme from human placenta) read?
A: The mode of inhibition was “noncompetitive inhibition”.

Q: What about the “specificity: inhibitive activity to enzyme from human placenta compared with enzyme from Flavobacterium” value [1, 4] of the same compound?
A: The value was “much higher specificity to the enzyme derived from human placenta”.

Q: And the “acute toxicity LD₅₀” value (mouse)?
A: Its value is “greater than 400 mg/kg”.

Q: And the “acute toxicity LD₅₀” value (rat)?
A: Its value is greater than 300 mg/kg.

Q: For `CC[C@H](C)[C@H](NC(=O)[C@H](Cc1ccccc1)NC(=O)[C@@H](NC(=O)[C@H](Cc1c[nH]cn1)NC(=O)CNC(=O)CNC(=O)[C@H](Cc1ccccc1)NC(=O)[C@H](CC(C)C)NC(=O)[C@@H]1CC(=O)NCC(=O)N[C@@H](Cc2ccc(O)cc2)C(=O)N2CCC[C@H]2C(=O)N[C@@H](Cc2c[nH]c3ccccc23)C(=O)N[C@@H](Cc2c[nH]c3ccccc23)C(=O)N[C@@H](CC(=O)O)C(=O)N[C@@H](Cc2ccc(O)cc2)C(=O)N[C@@H](CCCNC(=N)N)C(=O)N1)[C@@H](C)O)C(=O)N[C@@H](CO)C(=O)N1CCC[C@H]1C(=O)O` [SNA-115] (GYPWWDYRDLFGGHTFISP-OH; lactam N-9), which IC50 [2] is on record?
A: Its IC50 is 0.35 µM.

Q: What about the IC50 ([3]; Table 1, enzyme from human placenta, read-out: IC₅₀ (µM) Human placenta) of the same compound?
A: Its IC50 is 0.22 µM.

Q: What about the “specificity: inhibitive activity to enzyme from human placenta compared with enzyme from Flavobacterium” value [3, 4] of the same compound?
A: The value was “almost the same degree of inhibitive activity”.

Q: Which IC50 [3] does the source give for `CN[C@@H]1C[C@H]2O[C@@](C)([C@@H]1OC)n1c3ccccc3c3c4c(c5c6ccccc6n2c5c31)C(=O)NC4` [Staurosporine] here?
A: The IC50 was greater than 107 µM.

Q: And the “inhibitive activity to the enzyme derived from human placenta” value ([3]; result in words)?
A: The value was “very weak inhibitive activity”.
